Usually IC50 stands for the point on the concentration scale where inhibition reaches its midpoint. By Ki is commonly meant a dissociation constant, usually derived from enzyme kinetics or from competition with a known ligand.

These results are taken from paper PMC8269116 (Journal of psychopharmacology (Oxford, England), 2019).

Sequence of NET (P23975 whole entry): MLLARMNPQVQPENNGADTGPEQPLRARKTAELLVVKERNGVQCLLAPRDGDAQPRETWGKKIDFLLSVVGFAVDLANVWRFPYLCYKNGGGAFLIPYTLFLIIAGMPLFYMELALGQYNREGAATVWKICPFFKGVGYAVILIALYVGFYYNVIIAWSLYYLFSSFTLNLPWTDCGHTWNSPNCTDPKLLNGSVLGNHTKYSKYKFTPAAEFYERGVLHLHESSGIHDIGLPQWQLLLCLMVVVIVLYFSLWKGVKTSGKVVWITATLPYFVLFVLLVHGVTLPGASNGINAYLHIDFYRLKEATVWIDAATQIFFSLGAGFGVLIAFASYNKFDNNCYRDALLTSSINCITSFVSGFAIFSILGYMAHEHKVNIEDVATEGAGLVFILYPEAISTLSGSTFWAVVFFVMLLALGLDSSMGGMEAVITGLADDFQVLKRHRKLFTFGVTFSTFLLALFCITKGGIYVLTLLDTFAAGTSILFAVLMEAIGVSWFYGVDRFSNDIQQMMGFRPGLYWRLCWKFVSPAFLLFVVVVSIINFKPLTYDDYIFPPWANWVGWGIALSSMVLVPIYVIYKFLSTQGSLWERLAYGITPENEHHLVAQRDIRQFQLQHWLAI
Sequence of mouse TAAR1 (Q923Y8 whole entry): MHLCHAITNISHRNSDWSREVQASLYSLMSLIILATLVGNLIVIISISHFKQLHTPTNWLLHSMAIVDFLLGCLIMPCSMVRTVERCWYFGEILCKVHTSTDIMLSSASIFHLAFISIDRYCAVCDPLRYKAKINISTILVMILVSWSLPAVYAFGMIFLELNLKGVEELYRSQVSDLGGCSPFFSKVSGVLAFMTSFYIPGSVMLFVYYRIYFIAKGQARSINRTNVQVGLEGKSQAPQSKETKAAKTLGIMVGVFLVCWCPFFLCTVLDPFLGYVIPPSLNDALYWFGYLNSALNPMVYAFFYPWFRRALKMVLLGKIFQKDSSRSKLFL

The target of the first data set is T1, DAT (Homo sapiens, UniProt Q01959). As to the kind of experiment: [3H]dopamine uptake inhibition in HEK 293 cells overexpressing human DAT. Type of data set: cell-based. The following applies: 1/DAT IC50 : 1/SERT IC50; mean and 95% confidence interval.
T1 sequence (Q01959 whole entry): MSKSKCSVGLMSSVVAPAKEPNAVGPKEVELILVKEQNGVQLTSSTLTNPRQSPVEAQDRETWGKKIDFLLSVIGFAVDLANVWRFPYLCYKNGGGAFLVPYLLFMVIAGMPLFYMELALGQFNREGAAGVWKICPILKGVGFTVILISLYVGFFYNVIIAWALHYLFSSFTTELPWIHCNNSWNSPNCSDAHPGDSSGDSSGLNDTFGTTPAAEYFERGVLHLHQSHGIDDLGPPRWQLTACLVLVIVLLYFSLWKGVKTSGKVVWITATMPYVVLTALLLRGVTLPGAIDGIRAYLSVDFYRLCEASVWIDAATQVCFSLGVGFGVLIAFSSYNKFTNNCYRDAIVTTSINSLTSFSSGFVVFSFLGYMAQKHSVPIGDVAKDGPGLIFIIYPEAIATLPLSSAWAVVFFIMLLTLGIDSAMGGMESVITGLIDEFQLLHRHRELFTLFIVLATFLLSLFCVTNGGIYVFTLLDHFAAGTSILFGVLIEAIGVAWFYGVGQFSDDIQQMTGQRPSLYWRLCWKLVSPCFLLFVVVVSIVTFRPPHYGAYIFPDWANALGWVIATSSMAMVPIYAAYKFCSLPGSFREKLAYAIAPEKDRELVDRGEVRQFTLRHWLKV
As for `CC(N)C(=O)c1ccc2c(c1)OCO2` (stereo not shown) [MDC, 3,4-methylenedioxycathinone], the DAT/SERT ratio was 0.38 (0.24–0.59).

The same data set, now with this note: anomalous increase at some concentrations, non-sigmoidal curves.
Turning to `CNC(C)C(=O)c1ccc(O)c(O)c1` (stereo not shown) [HHMC, 3,4-Dihydroxymethcathinone], the “increase of dopamine uptake” value is recorded as “more than 200%”.

A further data set deals with human 5-HT transporter (SERT) (Homo sapiens, UniProt P31645). As to the kind of experiment: [3H]5-HT uptake inhibition in HEK 293 cells overexpressing human SERT. Type of data set: cell-based. The note with it: read-out: SERT IC50; 5-HT uptake inhibition; mean and 95% confidence interval.
Sequence of human 5-HT transporter (SERT) (P31645 whole entry): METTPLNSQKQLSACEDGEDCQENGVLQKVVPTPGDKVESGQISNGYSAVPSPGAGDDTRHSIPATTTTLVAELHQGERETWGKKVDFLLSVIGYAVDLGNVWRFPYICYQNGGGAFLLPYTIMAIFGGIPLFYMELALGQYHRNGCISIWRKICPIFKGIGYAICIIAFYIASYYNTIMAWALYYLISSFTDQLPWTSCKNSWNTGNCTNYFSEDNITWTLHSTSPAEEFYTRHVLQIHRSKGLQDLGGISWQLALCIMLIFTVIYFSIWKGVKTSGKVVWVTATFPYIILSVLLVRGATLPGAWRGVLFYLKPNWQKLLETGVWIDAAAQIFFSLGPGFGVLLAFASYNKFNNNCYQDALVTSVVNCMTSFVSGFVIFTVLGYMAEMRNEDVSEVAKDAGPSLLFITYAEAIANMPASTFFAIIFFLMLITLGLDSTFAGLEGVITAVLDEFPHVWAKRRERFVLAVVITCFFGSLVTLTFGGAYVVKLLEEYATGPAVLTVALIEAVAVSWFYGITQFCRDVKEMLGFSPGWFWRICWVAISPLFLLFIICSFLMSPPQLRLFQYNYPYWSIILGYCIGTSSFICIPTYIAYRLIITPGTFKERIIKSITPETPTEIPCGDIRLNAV
For the compound `CNC(C)C(=O)c1ccc(O)c(O)c1` (stereo not shown) [HHMC, 3,4-Dihydroxymethcathinone], the half-inhibitory concentration (IC50) is greater than 100 µM.

As to `CC(N)C(=O)c1ccc2c(c1)OCO2` (stereo not shown) [MDC, 3,4-methylenedioxycathinone], the IC50 worked out at 13 µM.

The next data set addresses NET (Homo sapiens, UniProt P23975). Nature of the data set: Radioligand binding, N-methyl-[3H]nisoxetine displacement. The following applies: read-out: NET Ki; mean±SD, n=3.
In the case of `CNC(C)C(=O)c1ccc(O)c(O)c1` (stereo not shown) [HHMC, 3,4-Dihydroxymethcathinone], the Ki amounted to 4 ± 1 µM.

Consider `CC(N)C(=O)c1ccc2c(c1)OCO2` (stereo not shown) [MDC, 3,4-methylenedioxycathinone], for which the inhibition constant Ki was greater than 8.8 µM.

Another data set deals with T1, DAT. As to the kind of experiment: Radioligand binding, [3H]WIN35,428 displacement. The note with it: read-out: DAT Ki; mean±SD, n=3.
Take `CNC(C)C(=O)c1ccc(O)c(O)c1` (stereo not shown) [HHMC, 3,4-Dihydroxymethcathinone]: the inhibitory constant (Ki) was 7.1 ± 0.3 µM.

As for `CC(N)C(=O)c1ccc2c(c1)OCO2` (stereo not shown) [MDC, 3,4-methylenedioxycathinone], the Ki is greater than 8.5 µM.

The target in another data set is SERT (Homo sapiens, UniProt P31645). As to the kind of experiment: Radioligand binding, [3H]citalopram displacement. The note with it: read-out: SERT Ki; mean±SD, n=3.
Sequence of SERT (P31645 whole entry): as above
For `CNC(C)C(=O)c1ccc(O)c(O)c1` (stereo not shown) [HHMC, 3,4-Dihydroxymethcathinone], the inhibitory constant (Ki) is greater than 7.4 µM.

With `CC(N)C(=O)c1ccc2c(c1)OCO2` (stereo not shown) [MDC, 3,4-methylenedioxycathinone], the Ki is greater than 7.4 µM.

The target in a further data set is dopamine D2 receptors (Homo sapiens, UniProt P14416). Nature of the data set: Radioligand binding, [3H]spiperone displacement. The following applies: read-out: D2 Ki; mean±SD, n=3.
Sequence of dopamine D2 receptors (P14416 whole entry): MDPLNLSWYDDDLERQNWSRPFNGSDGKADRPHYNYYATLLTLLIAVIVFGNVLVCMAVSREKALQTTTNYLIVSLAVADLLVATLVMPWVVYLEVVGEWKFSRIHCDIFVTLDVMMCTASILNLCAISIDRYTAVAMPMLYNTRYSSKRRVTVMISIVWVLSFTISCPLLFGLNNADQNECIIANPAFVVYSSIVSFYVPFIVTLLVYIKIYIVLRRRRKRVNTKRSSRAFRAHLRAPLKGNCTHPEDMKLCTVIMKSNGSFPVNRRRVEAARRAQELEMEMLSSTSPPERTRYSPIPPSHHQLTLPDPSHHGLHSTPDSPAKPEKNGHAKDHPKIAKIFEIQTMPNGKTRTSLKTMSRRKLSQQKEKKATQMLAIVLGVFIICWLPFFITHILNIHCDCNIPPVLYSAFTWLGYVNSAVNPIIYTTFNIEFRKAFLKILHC
With `CNC(C)C(=O)c1ccc(O)c(O)c1` (stereo not shown) [HHMC, 3,4-Dihydroxymethcathinone], the Ki was greater than 13 µM.

In the case of `CC(N)C(=O)c1ccc2c(c1)OCO2` (stereo not shown) [MDC, 3,4-methylenedioxycathinone], the Ki is greater than 13 µM.

The next data set concerns the target T2, α1 adrenergic receptor (α1A) (Homo sapiens, UniProt P35348).
T2 sequence (P35348 1-466): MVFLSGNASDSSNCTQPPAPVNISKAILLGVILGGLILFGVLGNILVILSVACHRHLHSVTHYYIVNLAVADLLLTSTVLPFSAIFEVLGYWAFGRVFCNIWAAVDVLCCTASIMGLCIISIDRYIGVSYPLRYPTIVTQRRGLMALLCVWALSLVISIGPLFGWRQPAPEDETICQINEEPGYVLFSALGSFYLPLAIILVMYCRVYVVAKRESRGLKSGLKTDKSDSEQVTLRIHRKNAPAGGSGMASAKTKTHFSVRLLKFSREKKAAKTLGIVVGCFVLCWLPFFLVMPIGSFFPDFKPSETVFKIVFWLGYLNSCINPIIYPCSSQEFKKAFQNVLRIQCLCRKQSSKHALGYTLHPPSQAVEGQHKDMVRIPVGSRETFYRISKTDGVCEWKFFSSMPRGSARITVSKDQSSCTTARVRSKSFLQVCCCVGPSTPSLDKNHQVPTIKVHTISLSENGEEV
As to the kind of experiment: Radioligand binding, [3H]prazosin displacement. The note with it: read-out: α1A Ki; mean±SD, n=3.
For the compound `CNC(C)C(=O)c1ccc(O)c(O)c1` (stereo not shown) [HHMC, 3,4-Dihydroxymethcathinone], the Ki is greater than 9.5 µM.

In the case of `CC(N)C(=O)c1ccc2c(c1)OCO2` (stereo not shown) [MDC, 3,4-methylenedioxycathinone], the inhibition constant (Ki) was greater than 9.5 µM.

In a further data set the target is T3, α2 adrenergic receptor (α2A) (Homo sapiens, UniProt P08913).
T3 sequence (P08913 1-465): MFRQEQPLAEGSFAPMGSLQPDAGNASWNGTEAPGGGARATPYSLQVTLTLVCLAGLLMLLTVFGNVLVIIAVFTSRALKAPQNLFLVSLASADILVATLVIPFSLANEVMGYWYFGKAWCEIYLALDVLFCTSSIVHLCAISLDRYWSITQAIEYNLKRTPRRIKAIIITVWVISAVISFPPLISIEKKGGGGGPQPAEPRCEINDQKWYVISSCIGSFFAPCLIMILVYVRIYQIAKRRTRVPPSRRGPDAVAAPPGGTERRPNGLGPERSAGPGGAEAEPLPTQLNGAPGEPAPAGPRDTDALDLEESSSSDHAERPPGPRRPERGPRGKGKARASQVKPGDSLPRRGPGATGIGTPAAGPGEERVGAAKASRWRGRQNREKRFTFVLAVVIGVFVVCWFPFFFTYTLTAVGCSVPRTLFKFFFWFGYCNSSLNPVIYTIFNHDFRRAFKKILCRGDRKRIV
As to the kind of experiment: Radioligand binding, [3H]rauwolscine displacement. The following applies: read-out: α2A Ki; mean±SD, n=3.
As to `CNC(C)C(=O)c1ccc(O)c(O)c1` (stereo not shown) [HHMC, 3,4-Dihydroxymethcathinone], the Ki is greater than 4.7 µM.

As for `CC(N)C(=O)c1ccc2c(c1)OCO2` (stereo not shown) [MDC, 3,4-methylenedioxycathinone], the inhibitory constant (Ki) was greater than 4.7 µM.

For another data set, the target named is T4, 5-HT1A receptor (Homo sapiens, UniProt P08908).
T4 sequence (P08908 1-422): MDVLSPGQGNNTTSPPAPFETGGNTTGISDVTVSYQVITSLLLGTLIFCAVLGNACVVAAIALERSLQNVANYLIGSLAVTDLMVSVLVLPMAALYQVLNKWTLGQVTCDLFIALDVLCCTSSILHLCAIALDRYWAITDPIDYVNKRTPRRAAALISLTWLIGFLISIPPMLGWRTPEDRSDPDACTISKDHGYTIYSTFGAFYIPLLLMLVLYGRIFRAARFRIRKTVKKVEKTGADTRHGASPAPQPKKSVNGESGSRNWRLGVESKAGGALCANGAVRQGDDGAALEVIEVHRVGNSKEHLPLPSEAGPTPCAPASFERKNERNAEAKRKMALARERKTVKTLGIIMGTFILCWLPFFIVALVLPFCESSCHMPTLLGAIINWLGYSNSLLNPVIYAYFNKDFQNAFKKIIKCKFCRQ
As to the kind of experiment: Radioligand binding, [3H]8-hydroxy-2-. The note with it: read-out: 5-HT1A Ki; mean±SD, n=3.
In the case of `CNC(C)C(=O)c1ccc(O)c(O)c1` (stereo not shown) [HHMC, 3,4-Dihydroxymethcathinone], the inhibition constant (Ki) was greater than 18 µM.

Consider `CC(N)C(=O)c1ccc2c(c1)OCO2` (stereo not shown) [MDC, 3,4-methylenedioxycathinone], for which the Ki is greater than 17 µM.

The target of another data set is 5-HT2A receptor (Homo sapiens, UniProt P28223). Nature of the data set: Radioligand binding, [3H]ketanserin displacement. The note with it: read-out: 5-HT2A Ki; mean±SD, n=3.
Sequence of 5-HT2A receptor (P28223 whole entry): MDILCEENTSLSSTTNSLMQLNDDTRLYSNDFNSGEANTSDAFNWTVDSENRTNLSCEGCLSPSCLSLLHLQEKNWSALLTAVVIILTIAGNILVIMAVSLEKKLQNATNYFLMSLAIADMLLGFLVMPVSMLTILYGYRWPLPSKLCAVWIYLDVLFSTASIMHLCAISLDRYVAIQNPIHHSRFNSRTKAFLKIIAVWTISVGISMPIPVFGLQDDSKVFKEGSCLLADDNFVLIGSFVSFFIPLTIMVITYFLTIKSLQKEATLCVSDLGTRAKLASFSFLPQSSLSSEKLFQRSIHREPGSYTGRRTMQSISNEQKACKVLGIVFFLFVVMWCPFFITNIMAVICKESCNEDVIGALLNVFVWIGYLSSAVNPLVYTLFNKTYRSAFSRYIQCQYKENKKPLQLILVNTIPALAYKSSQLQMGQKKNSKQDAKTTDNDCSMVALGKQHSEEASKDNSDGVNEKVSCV
`CNC(C)C(=O)c1ccc(O)c(O)c1` (stereo not shown) [HHMC, 3,4-Dihydroxymethcathinone]: the Ki is greater than 12 µM.

On to `CC(N)C(=O)c1ccc2c(c1)OCO2` (stereo not shown) [MDC, 3,4-methylenedioxycathinone], for which the Ki is greater than 12 µM.

The target of another data set is T5, 5-HT2C receptor (Homo sapiens, UniProt P28335).
T5 sequence (P28335 33-458): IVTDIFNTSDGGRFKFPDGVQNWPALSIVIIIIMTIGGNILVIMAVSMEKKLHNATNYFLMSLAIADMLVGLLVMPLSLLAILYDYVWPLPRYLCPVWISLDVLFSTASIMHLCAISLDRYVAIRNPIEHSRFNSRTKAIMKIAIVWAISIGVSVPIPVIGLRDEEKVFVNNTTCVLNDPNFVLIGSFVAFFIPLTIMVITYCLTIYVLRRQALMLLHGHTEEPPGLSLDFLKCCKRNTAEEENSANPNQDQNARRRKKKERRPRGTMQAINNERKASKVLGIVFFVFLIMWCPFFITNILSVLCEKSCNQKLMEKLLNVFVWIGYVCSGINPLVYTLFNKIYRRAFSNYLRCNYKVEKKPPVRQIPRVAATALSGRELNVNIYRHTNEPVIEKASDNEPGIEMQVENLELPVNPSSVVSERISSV
As to the kind of experiment: biochemical. The following applies: read-out: 5-HT2c Ki; mean±SD, n=3. Format: binding.
Take `CNC(C)C(=O)c1ccc(O)c(O)c1` (stereo not shown) [HHMC, 3,4-Dihydroxymethcathinone]: the Ki is greater than 5.1 µM.

In the case of `CC(N)C(=O)c1ccc2c(c1)OCO2` (stereo not shown) [MDC, 3,4-methylenedioxycathinone], the Ki is greater than 5.1 µM.

A further data set deals with rat TAAR1 (Rattus norvegicus, UniProt Q923Y9). Nature of the data set: Radioligand binding, [3H]RO5166017 displacement. The following applies: read-out: TAAR1rat Ki; mean±SD, n=3.
Sequence of rat TAAR1 (Q923Y9 whole entry): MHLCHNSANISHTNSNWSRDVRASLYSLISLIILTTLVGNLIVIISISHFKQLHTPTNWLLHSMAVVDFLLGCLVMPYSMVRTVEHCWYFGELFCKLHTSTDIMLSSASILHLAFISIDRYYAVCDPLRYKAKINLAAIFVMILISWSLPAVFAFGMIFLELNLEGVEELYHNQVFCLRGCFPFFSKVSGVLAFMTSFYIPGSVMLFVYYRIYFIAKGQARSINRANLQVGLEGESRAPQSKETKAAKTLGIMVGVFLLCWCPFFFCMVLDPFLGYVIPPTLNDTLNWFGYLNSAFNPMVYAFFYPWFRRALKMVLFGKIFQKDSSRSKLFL
On to `CNC(C)C(=O)c1ccc(O)c(O)c1` (stereo not shown) [HHMC, 3,4-Dihydroxymethcathinone], for which the inhibition constant (Ki) was 2.2 ± 0.1 µM.

Another data set has as its target mouse TAAR1 (Mus musculus, UniProt Q923Y8). Nature of the data set: Radioligand binding, [3H]RO5166017 displacement. The following applies: read-out: TAAR1mouse Ki; mean±SD, n=3.
For the compound `CNC(C)C(=O)c1ccc(O)c(O)c1` (stereo not shown) [HHMC, 3,4-Dihydroxymethcathinone], the Ki is greater than 4.4 µM.

As to `CC(N)C(=O)c1ccc2c(c1)OCO2` (stereo not shown) [MDC, 3,4-methylenedioxycathinone], the Ki was found to be 3.5 ± 0.3 µM.

Tested on in the next data set: not given
Assay: not given
The following applies: rat plasma, subcutaneous injections of methylone; ref Elmore et al., 2017; cited from earlier work.
Regarding `CNC(C)C(=O)c1ccc(O)c(O)c1` (stereo not shown) [HHMC, 3,4-Dihydroxymethcathinone], the “amount in plasma as % of parent compound methylone” value is reported as 10–13%.

Regarding `CC(N)C(=O)c1ccc2c(c1)OCO2` (stereo not shown) [MDC, 3,4-methylenedioxycathinone], the “amount in plasma as % of parent compound methylone” value was 10–13%.

Staying with this data set, now noted: rat plasma, subcutaneous methylone; ref Elmore et al., 2017; cited from earlier work.
In the case of `CNC(C)C(=O)c1ccc(O)c(O)c1` (stereo not shown) [HHMC, 3,4-Dihydroxymethcathinone], the “time at which Cmax was reached” value is 60 to 70 min.

Take `CC(N)C(=O)c1ccc2c(c1)OCO2` (stereo not shown) [MDC, 3,4-methylenedioxycathinone]: the “time at which Cmax was reached” value is 30 to 45 min.

Tested on in a further data set: not given
Assay: not given
The note with it: after subcutaneous methylone; ref Stefkova et al., 2017; cited from earlier work.
Take `CC(N)C(=O)c1ccc2c(c1)OCO2` (stereo not shown) [MDC, 3,4-methylenedioxycathinone]: the “delay of serum peak relative to methylone” value is given as 30 min.

Staying with this data set, now noted: peak, after subcutaneous methylone; ref Stefkova et al., 2017; cited from earlier work.
Take `CC(N)C(=O)c1ccc2c(c1)OCO2` (stereo not shown) [MDC, 3,4-methylenedioxycathinone]: the “serum level as % of the methylone levels” value is given as “about 20%”.
